The text below walks through data of US9556110B2, “Aminoalcohol lipidoids and uses thereof” (Massachusetts Institute of Technology, priority 2008, dated 2017).

In the assay the test system is Factor VII. Nature of the assay: In vivo Factor VII knockdown after injection of anti-Factor VII siRNA lipidoid formulations. Details: species or system C57BL/6 mice. The note with it: mice, 0.01 mg/kg siRNA dosing. The protocol:
C57BL/6 mice (Charles River Labs) received either saline or siRNA in lipidoid formulations via tail vein injection at a volume of 0.01 ml/g. […] At 48 hours after administration, animals were anesthetized by isofluorane inhalation and blood was collected into serum separator tubes by retroorbital bleed. Serum levels of Factor VII protein were determined in samples using a chromogenic assay (Biophen FVII, Aniara Corporation) according to the manufacturer's protocols. A standard curve was generated using serum collected from saline-treated animals. Exemplary results are depicted in FIG. 7.
To test siRNA delivery efficacy in vivo, a mouse model for liver delivery was used. […] Once produced by hepatocytes, Factor VII is released into the bloodstream, and a baseline level of expression can be determined by simple blood draw and quantification of protein levels by colorimetric assay. By delivering anti-Factor VII siRNA to hepatocytes, knockdown of this model protein can be achieved and a percentage of silencing can be determined by comparison to an untreated control. […]
Following the initial in vivo screening experiments, two compounds were used to conduct a dose response. […] In addition to Factor VII measurement, the change in mouse body weight is recorded and a loss in weight is generally considered formulation induced toxicity (See FIG. 13b and FIG. 14b). […]

As to `CCCCCCCCCCC(O)CN(CCN1CCN(CCN(CC(O)CCCCCCCCCC)CC(O)CCCCCCCCCC)CC1)CCN(CC(O)CCCCCCCCCC)CC(O)CCCCCCCCCC` (racemic) [C12-200], the “difference of Factor VII reduction between racemic lipidoid and R or S forms” value is recorded as “insignificant”. Take `CCCCCCCCCC[C@H](O)CN(CCN1CCN(CCN(C[C@@H](O)CCCCCCCCCC)C[C@@H](O)CCCCCCCCCC)CC1)CCN(C[C@@H](O)CCCCCCCCCC)C[C@@H](O)CCCCCCCCCC` [(S)—C12-200]: under “preliminary”, the “reduction of systemic Factor VII” value is “approximately 50%”.
